Patent US7465745B2, “Cathepsin S inhibitors” (Boehringer Ingelheim Pharmaceuticals, Inc., priority 2003, dated 2008)

Biological target: T1, Human recombinant cathepsin S (Homo sapiens, UniProt P25774)
T1 construct: made in house; host or cells: Sf9 insect cells (baculovirus, pFastBac1)
Test: Inhibition of Cathepsin S
Format: biochemical
Conditions: 10 nM enzyme, pH 6.5, 37° C., fluorescence 360/460 nm
Experimental: U937 RNA was subjected to reverse transcriptase/polymerase chain reaction with primer A (5′[sequence] 3′) and primer B (5′[sequence] 3′) designed to specifically amplify the cathepsin S cDNA. The resulting 900 bp DNA fragment was subcloned into pGEM-T (Promega) and sequenced to confirm its identity. This construct was used for all subsequent manipulations.
The ligation mixture was used to transform DH5a competent cells (GibcoBRL) and plated on LB plates containing 100 ug/ml ampicillin. Colonies were grown in overnight cultures of LB media containing 50 ug/ml Ampicillin, plasmid DNA isolated and correct insert confirmed by restriction enzyme digestion. Recombinant pFastBac donor plasmid was transformed into DH10Bac competent cells (GibcoBRL). Large white colonies were picked from LB plates containing 50 ug/ml kanamycin, 7 ug/ml gentamicin, 10 ug/ml tetracycline, 100 ug/ml Bluo-gal, and 40 ug/ml IPTG. DNA was isolated and used to transfect Sf9 insect cells using CellFECTIN reagent (GibcoBRL). Cells and supernatant were harvested after 72 hours. Viral supernatant was passaged twice and presence of Cat S confirmed by PCR of the supernatant. […]
Human recombinant cathepsin S expressed in Baculovirus is used at a final concentration of 10 nM in buffer. […] Compound activity is measured by diminished fluorescence compared to DMSO control when read at 360 nm excitation and 460 nm emission.

T1 sequence (P25774 115-331): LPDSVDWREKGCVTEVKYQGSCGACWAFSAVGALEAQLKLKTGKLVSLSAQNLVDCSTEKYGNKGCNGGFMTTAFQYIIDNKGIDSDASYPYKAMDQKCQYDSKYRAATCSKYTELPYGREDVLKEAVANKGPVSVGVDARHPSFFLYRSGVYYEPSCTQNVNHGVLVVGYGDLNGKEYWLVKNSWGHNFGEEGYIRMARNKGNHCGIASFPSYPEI

## CCC(C)(C)CC[C@@H](NC(=O)N1CCOCC1)C(=O)NC1(C#N)CCN(C)CC1 [Morpholine-4-carboxylic acid [(R)-1-(4-cyano-1-methyl-piperidine-4-ylcarbamoyl)-4,4-dimethyl-hexyl]-amide]
  IC50: > 100 nM
